Key:
Rattus norvegicus [1] = assay: Reduction in serum cholesterol in rat model at dose 1.0 mg/kg (p.o.); assay type: functional, organism-based; parameters: dose 1 mg/kg
Rattus norvegicus [2] = assay: Reduction in body weight in rat model at dose 1.0 mg/kg (p.o.); assay type: functional; conditions: route oral
Rattus norvegicus [3] = assay: Reduction in uterine weight in rat model at dose 1.0 mg/kg (p.o.); assay type: functional; conditions: route oral
Rattus norvegicus [4] = assay: Reduction in body weight in rat model at dose 10.0 mg/kg (p.o.); assay type: functional; conditions: route oral
Rattus norvegicus [5] = assay: Reduction in serum cholesterol in rat model at dose 0.1 mg/kg (p.o.); assay type: functional, organism-based; parameters: dose 0.1 mg/kg
Rattus norvegicus [6] = assay: Reduction in uterine weight in rat model at dose 0.1 mg/kg (p.o.); assay type: functional; conditions: route oral
Rattus norvegicus [7] = assay: Reduction in serum cholesterol in rat model at dose 10.0 mg/kg (p.o.); assay type: functional, organism-based; parameters: dose 10 mg/kg
Rattus norvegicus [8] = assay: Reduction in uterine weight in rat model at dose 10.0 mg/kg (p.o.); assay type: functional; conditions: route oral
Rattus norvegicus [9] = assay: Reduction in serum cholesterol in rat model at dose 0.01 mg/kg (p.o.); assay type: functional, organism-based; parameters: dose 0.01 mg/kg
Rattus norvegicus [10] = assay: Reduction in uterine weight in rat model at dose 0.01 mg/kg (p.o.); assay type: functional; conditions: route oral
Rattus norvegicus [11] = assay: Reduction in body weight in rat model at dose 0.01 mg/kg (p.o.); assay type: functional; conditions: route oral
Rattus norvegicus [12] = assay: Reduction in body weight in rat model at dose 0.1 mg/kg (p.o.); assay type: functional; conditions: route oral

Compound | Serum cholesterol (Rattus norvegicus [1]) | Body weight (Rattus norvegicus [2]) | Uterine weight (Rattus norvegicus [3]) | Body weight (Rattus norvegicus [4]) | Serum cholesterol (Rattus norvegicus [5]) | Uterine weight (Rattus norvegicus [6]) | Serum cholesterol (Rattus norvegicus [7]) | Uterine weight (Rattus norvegicus [8]) | Serum cholesterol (Rattus norvegicus [9]) | Uterine weight (Rattus norvegicus [10]) | Body weight (Rattus norvegicus [11]) | Body weight (Rattus norvegicus [12])
CC1=C(c2ccc(O)cc2)C(c2ccc(OCCN3CCCCC3)cc2)Oc2cc(O)ccc21 (configuration not stated) | 42.3 mg/dL | 295 g | 134.2 mg | 302 g | 69.8 mg/dL | 160.2 mg | 57.4 mg/dL | 135.2 mg | 79 mg/dL | 128.2 mg | 306 g | 281 g
Oc1ccc(C2=Cc3ccc(O)cc3OC2c2ccc(OCCN3CCCCC3)cc2)cc1 (configuration not stated) | 52.6 mg/dL | 287 g | 151 mg | 284 g | 69.3 mg/dL | 132.2 mg | 53 mg/dL | 124.2 mg | 92.1 mg/dL | 105.7 mg | 334 g | 314 g
C#C[C@]1(O)CC[C@H]2[C@@H]3CCc4cc(O)ccc4[C@H]3CC[C@@]21C [ETHINYL ESTRADIOL] | – | – | – | – | 37.1 mg/dL | 319 mg | – | – | – | – | – | 274 g
